The source made the active and inactive calls. How the calls were made is not given here.
What follows are compounds tested against Ubiquitin-conjugating enzyme E2 N (Homo sapiens) (UniProt P61088) (assay: NMR detection of UBE2N ligand binding – biophysical, purified protein (AID 1552)). Settings: NMR binding to purified UBE2N.
Ubiquitin-conjugating enzyme E2 N (Homo sapiens), sequence (P61088 whole entry, looked up): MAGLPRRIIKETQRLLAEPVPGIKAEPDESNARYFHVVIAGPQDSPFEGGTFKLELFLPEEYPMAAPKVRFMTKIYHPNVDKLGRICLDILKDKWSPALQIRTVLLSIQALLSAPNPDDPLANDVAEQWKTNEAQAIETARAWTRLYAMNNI
`COc1ccc(C)cc1-n1c(-c2ccncc2)n[nH]c1=S` was tested, and the Kd was > 4 mM (inactive).
In the case of `CC(C)=NNC(=O)c1ccccc1`, the Kd is reported as > 4 mM (inactive).
With `CC(C)(C)C(=O)Nc1ncc(C(F)(F)F)cc1Cl` the Kd was > 4 mM (inactive).
With `COC(=O)c1ccc(N2CCCC2)nc1` the Kd was > 4 mM (inactive).
In the case of `COc1ccc2c(c1O)-c1c(OC)c(OC)cc3c1[C@H](C2)N(C)CC3`, the Kd is reported as > 4 mM (inactive).
For `CNC(=S)Nc1ccc(C(=O)O)cc1`, the Kd was > 4 mM (inactive).
For `COC(=O)N1CCN(c2ccc(OC)cc2)CC1`, the Kd was > 4 mM (inactive).
In the case of `CSc1cc(C)[nH]c(=O)n1`, the Kd is reported as > 4 mM (inactive).
In the case of `COc1cc([C@@H]2c3cc4c(cc3[C@H](OC(C)=O)[C@H]3COC(=O)[C@H]23)OCO4)cc(OC)c1OC`, the Kd is reported as > 4 mM (inactive).
`NCc1ccc2sccc2c1` was tested, and the Kd was > 4 mM (inactive).
In the case of `C/C=C(/C)C(=O)O[C@@H]1Cc2c(ccc3ccc(=O)oc23)OC1(C)C`, the Kd is reported as > 4 mM (inactive).
For `Cc1[nH]c2ccccc2c(=O)c1CO`, the Kd was > 4 mM (inactive).
`Cc1noc(C)c1C(=O)N1CCc2ccccc21` was tested, and the Kd was > 4 mM (inactive).
`NC(=O)c1ccc(N=Cc2ccc[nH]2)cc1` was tested, and the Kd was > 4 mM (inactive).
With `Cc1cccc(-n2c(N)cc(=O)[nH]c2=S)c1` the Kd was > 4 mM (inactive).
For `O=C(COc1ccccc1Cl)N1CCCC1`, the Kd was > 4 mM (inactive).
`CN=C(c1ccc([N+](=O)[O-])cc1)N(C)C` was tested, and the Kd was > 4 mM (inactive).
For `O=C(O)c1cccnc1Oc1ccccc1`, the Kd was > 4 mM (inactive).
For `C(=C\c1ccccc1)/C=N/n1cnnc1`, the Kd was > 4 mM (inactive).
In the case of `Nc1nc2ncc(CNc3ccc(C(=O)N[C@@H](CCC(=O)O)C(=O)O)cc3)nc2c(=O)[nH]1`, the Kd is reported as > 4 mM (inactive).
With `Cc1ccsc1/C=c1\sc2ncnn2c1=O` the Kd was > 4 mM (inactive).
For `CC(=O)Cc1nsc(NC(=O)c2ccc(C)cc2)n1`, the Kd was > 4 mM (inactive).
`O=CN1CCN(C(=O)c2ccccc2Cl)CC1` was tested, and the Kd was > 4 mM (inactive).
In the case of `CN1CCC(NC(=S)NC2CC2)CC1`, the Kd is reported as > 4 mM (inactive).
For `O=C(O)c1ccc(-c2cccs2)s1`, the Kd was > 4 mM (inactive).
In the case of `CSc1nnc2c(n1)OC=Nc1ccccc1-2`, the Kd is reported as > 4 mM (inactive).
`Nc1ccccc1N=C1CNC(=O)C1` was tested, and the Kd was > 4 mM (inactive).
In the case of `NC(=O)C1CCN(C(=S)c2ccccc2)CC1`, the Kd is reported as > 4 mM (inactive).
For `CN=C1SC(CC(=O)Nc2ccc(O)cc2)C(=O)N1C` (centres undefined), the Kd was > 4 mM (inactive).
For `CN(Cc1nc2ccccc2n1C)C(=O)c1cccs1`, the Kd was > 4 mM (inactive).
For `Nc1ccc2c(c1)OCCO2`, the Kd was > 4 mM (inactive).
With `NC(=O)c1ccc2c(c1)OCO2` the Kd was > 4 mM (inactive).
For `OC(c1ccccc1)c1ccccn1` (centres undefined), the Kd was > 4 mM (inactive).
`COC(=O)c1cc(-c2c[nH]c3ccccc23)n[nH]1` was tested, and the Kd was > 4 mM (inactive).
`COc1ccc(C2NC(C(=O)O)CS2)cc1` (centres undefined) was tested, and the Kd was > 4 mM (inactive).
In the case of `O=C(O)c1cc(O)c2c(c1)C(=O)c1cc(O)cc(O)c1C2=O`, the Kd is reported as > 4 mM (inactive).
In the case of `c1ccc(-n2nnnc2Oc2cccc3cccnc23)cc1`, the Kd is reported as > 4 mM (inactive).
For `Cc1onc(-c2ccccc2)c1CO`, the Kd was > 4 mM (inactive).
In the case of `CC1=NCCc2c1[nH]c1cc(O)ccc21`, the Kd is reported as > 4 mM (inactive).
In the case of `NC(=O)c1c(Cl)nsc1-c1ccccc1Cl`, the Kd is reported as > 4 mM (inactive).
For `O=C(CSc1ccnc(=O)[nH]1)NCc1ccco1`, the Kd was > 4 mM (inactive).
For `Oc1ccc2c(c1)OCC1(O)Cc3cc(O)c(O)cc3C21` (centres undefined), the Kd was > 4 mM (inactive).
`O=C1c2cccc3cc(S(=O)(=O)O)cc(c23)C(=O)N1O` was tested, and the Kd was > 4 mM (inactive).
`C=CC(C)(O)CC/C=C(\C)CCC=C(C)C` (centres undefined) was tested, and the Kd was > 4 mM (inactive).
In the case of `Cc1nc(-c2ccccc2)ncc1CO`, the Kd is reported as > 4 mM (inactive).
With `CC(CO)NC(=O)C1C=C2c3cccc4[nH]cc(c34)C[C@H]2N(C)C1` (some centres undefined) the Kd was > 4 mM (inactive).
With `O=C(Cn1cncn1)c1ccc(F)c(F)c1` the Kd was > 4 mM (inactive).
With `COCc1cc(=O)oc2cc(O)c(Cl)cc12` the Kd was > 4 mM (inactive).
In the case of `COc1cc2[nH]c(=S)n(C)c(=O)c2cc1OC`, the Kd is reported as > 4 mM (inactive).
In the case of `O=C(O)C1CN(Cc2ccccc2)CCO1` (centres undefined), the Kd is reported as > 4 mM (inactive).
For `Cc1cc(OC(=O)c2c(C)cc(O)cc2O)cc(O)c1C(=O)O`, the Kd was > 4 mM (inactive).
For `Clc1ccc2c(N3CCNCC3)ccnc2c1`, the Kd was > 4 mM (inactive).
`CC1(C)CCC(C)(C)c2cc(C(=O)O)ccc21` was tested, and the Kd was > 4 mM (inactive).
`O=C1CCC(=O)N1c1cccc([N+](=O)[O-])c1` was tested, and the Kd was > 4 mM (inactive).
For `O=C(CSc1ncn[nH]1)c1ccc2c(c1)OCO2`, the Kd was > 4 mM (inactive).
In the case of `CC1(C)C(=O)C=C[C@@]2(C)C1CC(=O)[C@]1(C)C2CC[C@@]2(C)[C@H](c3ccoc3)OC(=O)[C@H]3O[C@]321` (some centres undefined), the Kd is reported as > 4 mM (inactive).
With `Cc1ccc(/C=N/NC(N)=O)o1` the Kd was > 4 mM (inactive).
`CC1CC[C@@]2(OC1)O[C@H]1CC3C4CC[C@@H]5C[C@@H](O)CC[C@]5(C)C4CC[C@]3(C)[C@H]1[C@@H]2C` (some centres undefined) was tested, and the Kd was > 4 mM (inactive).
With `CC1=C2[C@H]3OC(=O)[C@@H](C)[C@@H]3CC[C@@]2(C)C=CC1=O` the Kd was > 4 mM (inactive).
With `O=C(Cc1cccs1)Nc1ccccn1` the Kd was > 4 mM (inactive).
In the case of `COc1cccc(-c2nc3ccc(O)cc3c(=O)o2)c1`, the Kd is reported as > 4 mM (inactive).
For `CNC(=O)N1CCN(C(=O)NC)CC1`, the Kd was > 4 mM (inactive).
`COC1C(O)C(O[C@H]2CC[C@]3(C=O)C4C(CC[C@]3(O)C2)[C@@]2(O)CC[C@H](C3=CC(=O)OC3)[C@@]2(C)C[C@H]4OC(C)=O)OC(C)C1OC(C)=O` (some centres undefined) was tested, and the Kd was > 4 mM (inactive).
For `COc1ccc(N2C(=O)CCC2=O)c(OC)c1`, the Kd was > 4 mM (inactive).
`O=C(N1CCOCC1)N1CCN(c2ccccn2)CC1` was tested, and the Kd was > 4 mM (inactive).
With `COc1ccccc1C(=O)Nc1ccccn1` the Kd was > 4 mM (inactive).
For `O=c1ccc(=O)n(CN2CCc3ccccc3C2)[nH]1`, the Kd was > 4 mM (inactive).
For `Oc1ccc(C(=S)N2CCOCC2)cc1`, the Kd was > 4 mM (inactive).
With `COc1cc(C)c(S(=O)(=O)N2CCN(C)CC2)cc1C` the Kd was > 4 mM (inactive).
`CN1CC(=O)N=C1N` was tested, and the Kd was > 4 mM (inactive).
In the case of `CCCCN1C(=O)N(C)C2NC(=O)NC21` (centres undefined), the Kd is reported as > 4 mM (inactive).
With `Cc1ccc(S(=O)(=O)CC(=O)N(C)C)cc1` the Kd was > 4 mM (inactive).
`O=C(O)c1ccc(NC(=O)c2cccs2)cc1` was tested, and the Kd was > 4 mM (inactive).
With `CCOC(=O)C1CCN(c2ncnc3nc[nH]c23)CC1` the Kd was > 4 mM (inactive).
For `CC1=C(C(=O)Nc2ccccc2)SCCO1`, the Kd was > 4 mM (inactive).
`NC(=O)c1ccsc1NC(=O)c1ccccc1[N+](=O)[O-]` was tested, and the Kd was > 4 mM (inactive).
`CC(=O)O[C@H]1CCC2(C)C3=C(CCC2C1(C)C)[C@]1(C)CCC(C(C)CCC=C(C)C)[C@@]1(C)CC3` (some centres undefined) was tested, and the Kd was > 4 mM (inactive).
With `CN1CCC2(CC1)CC1CC3C=CC1(CN2)O3` (centres undefined) the Kd was > 4 mM (inactive).
`COC(=O)NNc1ncnc(N)c1[N+](=O)[O-]` was tested, and the Kd was > 4 mM (inactive).
`CC(C)=CCCC1(C)C=Cc2c(O)c3c(c(CC=C(C)C)c2O1)OC12C(=CC4CC1C(C)(C)OC2(C/C=C(/C)C(=O)O)C4=O)C3=O` (centres undefined) was tested, and the Kd was > 4 mM (inactive).
`CNC(=O)C(=O)Nc1ccc(C)c(C)c1` was tested, and the Kd was > 4 mM (inactive).
For `CNC(=O)Oc1ccc2c(c1)[C@]1(C)CCN(C)[C@@H]1N2C`, the Kd was > 4 mM (inactive).
`NC(=O)c1c[nH]c2ccccc12` was tested, and the Kd was > 4 mM (inactive).
`CC(=O)OC1CCC23CC1(C)CCC2C(C)(C)CC3OC(C)=O` (centres undefined) was tested, and the Kd was > 4 mM (inactive).
With `O=C(/C=C/c1ccc(O)c(O)c1)O[C@@H]1C[C@](O)(C(=O)O)C[C@@H](O)[C@H]1O` the Kd was > 4 mM (inactive).
`Cc1c(C(=O)Nn2cnnc2)oc2ccccc12` was tested, and the Kd was > 4 mM (inactive).
`Cc1sc2nc(NCCO)[nH]c(=O)c2c1C` was tested, and the Kd was > 4 mM (inactive).
`Cc1ccnc(NS(=O)(=O)c2cccs2)c1` was tested, and the Kd was > 4 mM (inactive).
In the case of `Cc1cccc(NC(=O)CN2C(=O)CNC2=O)c1`, the Kd is reported as > 4 mM (inactive).
With `Nc1nc(-c2ccncc2)cs1` the Kd was > 4 mM (inactive).
In the case of `Nc1ncc2[nH]cnc2n1`, the Kd is reported as > 4 mM (inactive).
In the case of `C=C(C)C1(O)OC(=O)C=C1OC` (centres undefined), the Kd is reported as > 4 mM (inactive).
With `O=c1[nH]c(=S)[nH]c2c1CCC2` the Kd was > 4 mM (inactive).
With `C/C1=C\CCC(=O)C2CC(C)(C)C2CC1` (centres undefined) the Kd was > 4 mM (inactive).
`O=C(Nn1cnnc1)c1cc2c(s1)CCCCC2` was tested, and the Kd was > 4 mM (inactive).
For `NC(=O)CC1NC(=O)c2ccccc21` (centres undefined), the Kd was > 4 mM (inactive).
`COc1ccccc1NS(=O)(=O)c1c[nH]c(=O)[nH]c1=O` was tested, and the Kd was > 4 mM (inactive).
For `CC(C)=CCCC1(C)C=Cc2c(O)c3c(c(CC=C(C)C)c2O1)OC12C(=CCCC1C(C)(C)O[C@@]2(C/C=C(\C)C(=O)O)C(=O)O)C3=O` (some centres undefined), the Kd was > 4 mM (inactive).
In the case of `Cn1nnc2cc(C(=O)N3CCSCC3)ccc21`, the Kd is reported as > 4 mM (inactive).
With `Nc1nc(N)nc(N2C(=O)c3ccccc3C2=O)n1` the Kd was > 4 mM (inactive).
In the case of `CC(=O)NC(=S)Nc1ccc(S(N)(=O)=O)cc1`, the Kd is reported as > 4 mM (inactive).
For `CCNC(=S)Nc1c(C)n(C)n(-c2ccccc2)c1=O`, the Kd was > 4 mM (inactive).
With `Nc1cc(=O)[nH]c(=S)n1CCc1ccccc1` the Kd was > 4 mM (inactive).
`O=C(O)CCC(=O)c1c[nH]c2ccccc12` was tested, and the Kd was > 4 mM (inactive).
In the case of `COC(=O)CCC(C)[C@H]1CCC2C3C(C[C@H](O)[C@@]21C)[C@@]1(C)CC[C@@H](O)C[C@H]1C[C@H]3O` (some centres undefined), the Kd is reported as > 4 mM (inactive).
For `OCC1CCCC1O` (centres undefined), the Kd was > 4 mM (inactive).
With `Nc1nc2ccc(S(N)(=O)=O)cc2s1` the Kd was > 4 mM (inactive).
`CN(Cc1nc2ccccc2n1C)S(C)(=O)=O` was tested, and the Kd was > 4 mM (inactive).
For `CCn1c(C)c(C(C)=O)c(N2CCN(C)CC2)nc1=S`, the Kd was > 4 mM (inactive).
With `O=C1C=CC(=O)N1c1ccc(N2CCOCC2)cc1` the Kd was > 4 mM (inactive).
In the case of `CC(=O)c1c(O)c(C)c(O)c2c1OC1=CC(=O)C(C(C)=O)C(=O)C12C` (centres undefined), the Kd is reported as > 4 mM (inactive).
For `C=C1C2CC[C@@]3(C)[C@H](c4ccoc4)OC(=O)C[C@]13O[C@H]1CC(O)C(C)(C)C(CC(=O)OC)[C@@]21C` (some centres undefined), the Kd was > 4 mM (inactive).
`NC(=O)c1ccccc1NC(=O)C1CCCO1` (centres undefined) was tested, and the Kd was > 4 mM (inactive).
In the case of `C/C=C/C(=O)Nc1ccc(NC(C)=O)cc1`, the Kd is reported as > 4 mM (inactive).

Reference: PubChem BioAssay AID1552 (Sanford-Burnham Center for Chemical Genomics, 2009)
